The text below walks through data of article PMC10934158, “Constituents of Chimaphila japonica and Their Diuretic Activity” (Molecules, 2024).

Holding throughout (type): cell-based
Assay [1] has as its system Cl^− transport in MDCK cells. The assay can be described thus: In vitro diuretic activity assay: Cl− transport across MDCK cells in Transwell chamber. Particulars: for inhibition at 100 µM: Canis lupus familiaris, read-out: Transport Inhibition Rate (%) Cl^−; for Inhibitory activity on Cl^− transport compared to blank group (in words): 100 µmol/L, significance vs blank group. As to the method: (§1) Generally, the transport of Na^+ and Cl^− plays an essential role in glomerular filtration and tubular reabsorption.
(§2) Log-phase MDCK cells were seeded in the upper chambers of Transwell plates (4 × 10^4 cells/well), and 800 µL of complete culture medium was added to the lower chambers. After 24 h of incubation at 37 ℃, the electrical resistance of the upper chamber cells was measured one by one (R = (Rcell − Rblank) × 0.04π). When the electrical resistance of the upper chamber cells reached ≥ 300 Ω cm^2, the upper chamber medium was removed and replaced with the drug solution. The blank group (given normal saline), experimental group (1, 4–12, 100 µmol/L), and hydrochlorothiazide group (200 µmol/L) were set, and each well was treated with 200 µL of the corresponding solution. The cells were then further incubated for 24 h. After that, the upper and lower chamber fluids were removed, and 200 µL of NaCl solution (21 mg/mL) was added to the upper chamber, while 800 µL of DMEM was added to the lower chamber for continued incubation. At 1, 2, and 3 h, 50 µL of the lower chamber fluid was taken, and the OD values were measured using Na^+ and Cl^− detection kits. The transport inhibition rate (%) was calculated as follows: transport inhibition rate (%) = (ODblank − ODexperimental)/ODblank × 100%.

Assay [2] concerns MDCK cells. Briefly: MTT cytotoxicity assay on MDCK cells. Particulars: 100 µmol/L, 24 h incubation, mean ± SD of three replicates; for inhibition at 100 µM: Canis lupus familiaris, read-out: Growth Inhibition Rate (%). The protocol:
First, we used the MTT method to examine the cytotoxicity of the compounds (1–12) on MDCK cells at a concentration of 100 µmol/L, and the results are shown in Table 5.
Each compound was evaluated for cytotoxicity on DMCK cells using MTT assays. A 96-well plate containing 1 × 10^4 cells per well was seeded with logarithmic growth-phase DMCK cells, which were then cultured for 24 h in a cell culture incubator. After that, the culture medium was changed to one that included medication (100 µmol/L for the treatment groups, 100 µmol/L for the control group, or 100 µmol/L for the positive control group). In total, 100 µL of the appropriate solution was added to each well, and they were then incubated for a further 24 h. After that, culture media were taken out and changed for a DMEM solution that included 20 µL of MTT (5 mg/mL). After incubating for 4 h, the liquid in each well was removed and replaced with 150 µL of DMSO, which was shaken for 10 min to ensure thorough mixing. The absorbance at 490 nm was measured to determine the optical density (OD) of each well. The cell growth inhibition rate was calculated as follows: cell growth inhibition rate (%) = (ODBlank − ODExperimental)/ODBlank × 100%.

In assay [3] the test system is Na^+ transport in MDCK cells. Briefly: In vitro diuretic activity assay: Na+ transport across MDCK cells in Transwell chamber. The following applies: for inhibition at 100 µM: Canis lupus familiaris; for inhibition at 100 µM / Transport Inhibition Rate (%) Na^+: compounds 100 µmol/L, hydrochlorothiazide 200 µmol/L, mean ± SD of three replicates; for Diuretic activity (overall, in words): in vitro Na^+ and Cl^− transport bioassays. As to the method: as §1, §2

Where [4] appears, read: MDCK Transwell, compounds 100 µmol/L, hydrochlorothiazide 200 µmol/L, mean ± SD of three replicates.
The mark [5] stands for this setting: MDCK Transwell, read-out: Transport Inhibition Rate (%) Na^+.
The mark [6] stands for this setting: MDCK, read-out: Transport Inhibition Rate (%) Na^+, MDCK Transwell.

Values joined by “and” are separate entries in the source; they are usually repeats but may differ in a detail not shown here. Equal values may be shown once. Read-outs that look alike come from different tables or passages of the source. Marks after values point to notes of the source that are not given here.

One may read the inhibition as the relative decrease from the control value, in per cent. As for `Cc1cc(O)ccc1O[C@H]1O[C@@H](CO)[C@H](O)[C@@H](O[C@H]2O[C@@H](CO)[C@H](O)[C@@H](O)[C@@H]2O)[C@@H]1O` [Compound 1, 3′-O-β-D-glucopyranosyl-isohomoarbutin], the inhibition at 100 µM in assay [1] (setting [4]) was 9.44 ± 0.78%; in assay [2], 4.89 ± 0.05%; in assay [3] (setting [5]) it was -11.7 ± 1.14%.
As to `Cc1cc(O)ccc1O[C@H]1O[C@@H](CO)[C@H](O[C@H]2O[C@@H](CO)[C@H](O)[C@@H](O)[C@@H]2O)[C@@H](O)[C@@H]1O` [Compound 2, 4′-O-β-D-glucopyranosyl-isohomoarbutin], in assay [2], the inhibition at 100 µM amounted to 29.48 ± 0.12%.
Still for that read-out and setting: under `Cc1cc(O)c(-c2cc(O[C@@H]3O[C@H](CO)[C@@H](O)[C@H](O)[C@H]3O)c(C)cc2O)cc1O[C@@H]1O[C@H](CO)[C@@H](O)[C@H](O)[C@H]1O` [Compound 3, 5-5′-dehydro-di (2-methyl-4-hydroxy-phenyl-1-O-β-D-glucopyranoside)] stands 23.31 ± 0.13%.
Take `C/C(=C\Cc1c(O)ccc(O[C@H]2O[C@@H](CO)[C@H](O)[C@@H](O)[C@@H]2O)c1C)CO` [Compound 5, 3-[(E)-4-hydroxy-3-methyl-2-butenyl]-4-hydroxy-2-methylphenyl-O-β-D-glucopyranoside]: the “Inhibitory activity on Cl^− transport compared to blank group (in words)” value in assay [1] is recorded as “good inhibitory activity”. In addition, the inhibition at 100 µM in assay [1] (setting [4]) was found to be 4.57 ± 0.65%; in assay [2] it was 4.08 ± 0.03%; in assay [3] (setting [5]), 7.61 ± 0.71%.
For the compound `Cc1cc(O)ccc1O[C@@H]1O[C@H](CO)[C@@H](O)[C@H](O)[C@H]1O` [Compound 6, isohomoarbutin], the inhibition at 100 µM in assay [1] (setting [4]) is 12.2 ± 1.33%; in assay [2], less than 0%; in assay [3] (setting [5]), 10.2 ± 1.24%.
For the compound `O=c1c(O)c(-c2ccc(O)c(O)c2)oc2cc(O)cc(O)c12` [Compound 7, quercetin], the results for the inhibition at 100 µM in assay [1] (MDCK), in assay [2] and in assay [3] (setting [6]) were 20.7 ± 0.74%, less than 0% and more than 20%, respectively. Further, the “Cl^− transport inhibition rate at peak, second hour” value in assay [1] (second hour (peak), Figure 4) is recorded as “higher than 20%”. Also, the “Na^+ transport inhibition rate at 1 h” value in assay [3] (Figure 3) was “more than 30.24%”. The “Transport Inhibition Rate (%) Na^+” value in assay [3] (MDCK Transwell) is reported as 35.95 ± 1.42 ^e %. The “Diuretic activity (overall, in words)” value in assay [3] was “potent diuretic activity”.
Take `C[C@@H]1O[C@@H](Oc2c(-c3ccc(O)c(O)c3)oc3cc(O)cc(O)c3c2=O)[C@H](O)[C@H](O)[C@H]1O` [Compound 8, quercitrin]: the inhibition at 100 µM is 0.65 ± 1.45% in assay [1] (MDCK), less than 0% in assay [2] and 18.5 ± 1.02% in assay [3] (setting [6]).
For `O=c1c(O[C@@H]2O[C@H](CO)[C@@H](O)[C@H](O)[C@H]2O)c(-c2ccc(O)c(O)c2)oc2cc(O)cc(O)c12` [Compound 9, isoquercitrin], in that order: -8.36 ± 2.6%, less than 0% and 6.22 ± 0.53%.
For `O=c1c(O[C@@H]2O[C@H](CO)[C@H](O)[C@H](O)[C@H]2O)c(-c2ccc(O)c(O)c2)oc2cc(O)cc(O)c12` [Compound 10, hyperoside], in that order: -13.2 ± 1.89%, less than 0% and 1.82 ± 0.81%.
For the compound `O=c1c(O)c(-c2ccc(O)cc2)oc2cc(O)cc(O)c12` [Compound 11, kaempferol], the inhibition at 100 µM in assay [1] (MDCK) was 27.7 ± 1.18%; in assay [2] it was less than 0%; in assay [3] (setting [6]) it was more than 20%. The “Na^+ transport suppression rate at 3 h compared with hydrochlorothiazide (in words)” value in assay [3] (3 h, Figure 3) is reported as “exceeds that of hydrochlorothiazide”. Besides, the “Transport Inhibition Rate (%) Na^+” value in assay [3] (MDCK Transwell) is reported as 28.81± 1.04 ^e %. The “Diuretic activity (overall, in words)” value in assay [3] is on record as “potent diuretic activity”.
For the compound `O=c1c(O[C@@H]2O[C@@H](CO)[C@H](O)[C@H]2O)c(-c2ccc(O)cc2)oc2cc(O)cc(O)c12` [Compound 12, juglanin], in assay [1], the “Inhibitory activity on Cl^− transport compared to blank group (in words)” value was “general inhibitory activity”. For the same compound, the inhibition at 100 µM in assay [1] (MDCK) was 3.27 ± 0.31%; in assay [2] it was less than 0%; in assay [3] (setting [6]), 14.2 ± 0.69%.
On to `NS(=O)(=O)c1cc2c(cc1Cl)NCNS2(=O)=O` [Hyd, hydrochlorothiazide, reference compound], for which the “Transport Inhibition Rate (%) Cl^−” value in assay [1] (setting [4]) is 23.42 ± 0.87 ^e %. For the same compound, the inhibition at 100 µM in assay [2] was less than 0%. For the same compound, the “Na^+ transport inhibition rate at 1 h” value in assay [3] (Figure 3) was determined as 27.91%. In addition, the “Transport Inhibition Rate (%) Na^+” value in assay [3] (MDCK Transwell) was 39.74 ± 0.64 ^e %.
“(1R,3R,4R)-3-methylcyclohexanol β-D-glucopyranoside [Compound 4]”: the “Transport Inhibition Rate (%) Cl^−” value in assay [1] (setting [4]) was 12.23 ± 0.18 ^e %. Besides, the “Growth Inhibition Rate (%)” value in assay [2] was found to be 4.89 ± 0.05%. Moreover, the “Transport Inhibition Rate (%) Na^+” value in assay [3] (MDCK Transwell) was “higher than 20% and 21.13 ± 0.89 ^e %”. For the same compound, in assay [3], the “Diuretic activity (overall, in words)” value is “potent diuretic activity”.
